# Experimental data as given in EP1101496A1, “THERAPEUTIC AGENTS FOR ALLERGIC DISEASES” (FUJI YAKUHIN KOGYO KABUSHIKI KAISHA, priority 1998, dated 2000).
# Experiments:
# [1] = Mouse body weight gain (side-effect index); type: in vivo, mice; conditions: average ± standard deviation; once a day Days 0-5; Compound No. 8 or 10 60 mg/kg s.c., prednisolone 10 mg/kg i.p.
# Method: Next the mice were measured for their body weight.
# [2] = tested on: infiltration of leukocytes into an air pouch; assay: Allergic inflammation model (air pouch model); type: in vivo, rats; conditions: 10 mg/kg or 30 mg/kg into the air pouch or intraperitoneally; 8 hours after the second challenge; dexamethasone 0.1 mg/kg as comparison
# Method: Compound No. 8 was dissolved in physiological saline to make the final concentration 2.5 mg/mL (equal to 10 mg/kg) or 7.5 mg/mL (equal to 30 mg/kg) and administered into an air pouch of animals or intraperitoneally at a dose of 4 mL/kg. Dexamethasone was also dissolved in physiological saline to make the final concentration 25 µg/mL (equal to 0.1 mg/kg) and administered into an air pouch of animals at a dose of 4 mL/kg. Administration into such an air pouch was conducted simultaneously with the second challenge while the intraperitoneal administration was 30 minutes prior to the second challenge. Acetylated bovine serum albumin diazo-coupled with arsanilic acid (ABA-AcBSA) was prepared according to the Ouchi et al. and Tabachnick et al. methods as disclosed in Ouchi et al., "Seibutsu Yakukagaku Jikken Koza, Ensho To Allergy (Inflammation and Allergy) I-2", pp.194 to 206, Hirokawa Publishing Co., Japan and Tabachnick et al., The Journal of Biological Chemistry, 234: 1726- 1730, 1959, and mixed with a Freund's complete adjuvant (Difco) at an equal ratio. The mixture was treated using a connection-type glass syringe to form an emulsion which was used as a sensitizing solution. […] The retrieved exudates were measured by a dye-exclusion method using a haematocytometer and the number of exudated leukocytes were counted.
# [3] = tested on: mouse scratching behavior; assay: Scratching behavior in experimental atopic dermatitis model; type: in vivo, mice; conditions: for % Inhibition (scratching behavior) / Scratching Behavior (Times) (Average± Deviation): 0.1% in ethanol painted on auricles 1 hour pre-elicitation; for % Inhibition (scratching behavior): 15 to 30 min and 30 to 45 min post-elicitation durations, versus solvent control; for Scratching Behavior (Times) (Average± Deviation): counts for the 15 to 30 min and 30 to 45 min post-elicitation durations
# Method: Mice were passively sensitized with anti-DNP IgE Ab and then elicited by painting 0.1% DNFB in ethanol onto both sides of a pair of mouse auricles […] in the same manner as in Example 1. Five minutes pre-elicitation, an ethanolic solution containing 0.3% of Compound No. 20 was painted onto both sides of a pair of the auricles at a dose of 10 µL per each side. Tacrolimus (Fujisawa Pharmaceutical Co., Ltd.) was used as a positive control drug. An ethanolic solution containing 0.1% of the positive control drug was prepared just prior to use and then painted onto the mouse auricles 1 hour pre-elicitation in the same manner as for the painting of Compound No. 20. A negative control group was painted with a solvent alone (6 animals per group).
# From the point immediately after elicitation, each mouse was housed individually in a comparted acrylic cage and observed by taking a video without any attendant up to 2 hours after elicitation (Inagaki, N., et al., The European Journal of Pharmacology, 367: 361-371, 1999). After finishing such a video recording, scratching behavior by mouse hind paws to a pair of ears was visually examined for each mouse and integrated scratching behaviors were counted during 6 post-elicitation durations for 20 minutes each; 0 to 20 min., 20 to 40 min., 40 to 60 min., 60 to 80 min., 80 to 100 min., and 100 to 120 min. In this experiment, an action from a start to scratch the ear by the mouse hind paw to a release of the hind paw is counted as one scratching behavior.
# Mice were passively sensitized with anti-DNP IgE Ab and then elicited with 0.1% DNFB in ethanol 24 hours post-sensitization in the same manner as in Example 12. One hour pre-elicitation, a 0.1% solution of a metalloproteinase inhibitor (Compound No. 20 or 21) in ethanol was painted onto both sides of a pair of the auricles at a dose of 10 µL per each side. A negative control group was painted with a solvent alone. From the point immediately after the elicitation, each mouse was housed individually in a comparted cage and observed by taking a video without any attendant up to 2 hours thereafter (3 animals per group). In the same manner as in Example 12, scratching behaviors by mouse hind paws were counted for every 15 minutes: 8 post-elicitation durations; 0 to 15 min., 15 to 30 min., 30 to 45 min., 45 to 60 min., 60 to 75 min., 75 to 90 min., 90 to 105 min., and 105 to 120 min.
Structure (SMILES),"Body Weight Gain, Day 5 [1]","Body Weight Gain, Day 7 [1]","Body Weight Gain, Day 10 [1]",infiltration of leukocytes into an air pouch (FIG. 13) [2],% Inhibition (scratching behavior) [3] [%],Scratching Behavior (Times) (Average± Deviation) [3],"inhibitory efficacy on scratching in the 20 to 40 min post-elicitation duration (FIG. 8) ([3]; 0.3% Compound No. 20 versus 0.1% tacrolimus, painted on auricles)","efficacy on mouse scratching behavior (FIG. 8) ([3]; 0.3% ethanolic solution painted on auricles 10 µL per side 5 minutes pre-elicitation, observed up to 2 hours)"
"CNC(=O)[C@H](Cc1ccc(NC(=N)N)cc1)NC(=O)[C@H](CC(C)C)C(CCCc1ccccc1)C(=O)NO (single isomer, unassigned) [Compound No. 8, N-[4-(N-hydroxyamino)-2(R)-isobutyl-3(R or S)-(3-phenyltrimethylene)succinyl]-L-4'-guanidophenylalanine-N-methylamide 1 acetate]",0.57± 0.61,0.77± 0.55,1.20± 0.26,significantly inhibited,–,–,–,–
"CNC(=O)[C@H](Cc1ccc(NC(=N)N)cc1)NC(=O)[C@H](CC(C)C)C(CCCc1ccccc1)C(=O)NO.Cl (single isomer, unassigned) [Compound No. 20, N-[4-(N-hydroxyamino)-2(R)-isobutyl-3(R or S)-(3-phenyltrimethylene)succinyl]-L-4'-guanidophenylalanine-N-methylamide 1 hydrochloride]",–,–,–,–,40.7,124.0 ± 43.6,higher than that of tacrolimus,apparently inhibits mouse scratching behavior
"CNC(=O)[C@H](Cc1ccc(N=C(N)N)cc1)NC(=O)[C@@H](CC(=O)NO)CC(C)C.O=S(=O)(O)O [Compound No. 21, N-[4-(N-hydroxyamino)-2(R)-isobutylsuccinyl]-L-4'-guanidophenylalanine-N-methylamide 1 sulfate]",–,–,–,–,54.1,96.0 ± 32.6,–,–
